Results as given in the Deep4Chem optical property database.
Blank lines part the entries; values can stand above or below the molecule they belong to.

Assay: solvent given as SMILES

Compound: CCCCCCOc1ccc(N(c2ccc(OCCCCCC)cc2)c2ccc(-c3sc(-c4ccc(N(c5ccc(OCCCCCC)cc5)c5ccc(OCCCCCC)cc5)cc4)c4nc(-c5ccc(OC)cc5)c(-c5ccc(OC)cc5)nc34)cc2)cc1
emission maximum (in ClCCl): 752 nm

Compound: CC(=O)n1cc(/C=C/c2ccc([N+](=O)[O-])cc2)c2ccccc21
emission maximum (in CC#N): 428 nm
emission maximum (in CCCCCCC): 408 nm
emission maximum (in CO): 424 nm
emission maximum (in O): 537 nm

Compound: C[Si]1(C)C2=C(c3ccc(N(c4ccccc4)c4ccccc4)cc31)P(=O)(c1ccccc1)c1ccccc12 (stereo not drawn)
emission maximum (in CC#N): 611 nm
emission maximum (in CO): 624 nm
emission maximum (in Cc1ccccc1): 544 nm

Compound: Cc1ccc(/C2=c3\cc/c(o3)=C(\c3ccc(C)cc3)c3ccc([nH]3)-c3ccc4n3[B-](F)(F)[N+]3=C(C=CC3=C4c3ccc[nH]3)c3ccc2[nH]3)cc1
emission maximum (in ClC(Cl)Cl): 729 nm

Compound: N#Cc1c(-n2c3ccc(Cl)cc3c3cc(Cl)ccc32)c(C#N)c(-n2c3ccc(Cl)cc3c3cc(Cl)ccc32)c(-n2c3ccc(Cl)cc3c3cc(Cl)ccc32)c1-n1c2ccc(Cl)cc2c2cc(Cl)ccc21
emission maximum (in Cc1ccccc1): 518 nm

Compound: N#Cc1cc(-n2c3ccccc3c3ncccc32)c(-n2c3ccccc3c3ncccc32)cc1C#N
emission maximum (in CC#N): 520.47 nm
emission maximum (in CCCCCC): 443.72 nm
emission maximum (in Cc1ccccc1): 450.7 nm
emission maximum (in ClCCl): 476.51 nm
emission maximum (in c1cc(-n2c3ccccc3c3ccccc32)cc(-n2c3ccccc3c3ccccc32)c1): 477.27 nm

Compound: COc1ccc(/C=C/C2=[O+][B-](F)(F)OC(/C=C/c3ccc(OC)c4ccccc34)=C2c2ccccc2)c2ccccc12
emission maximum (in CC#N): 649 nm
emission maximum (in CC(C)=O): 631 nm
emission maximum (in CCOC(C)=O): 603 nm
emission maximum (in CCOCC): 583 nm
emission maximum (in ClC(Cl)(Cl)Cl): 577 nm
emission maximum (in ClCCl): 633 nm

Compound: CC(C)(C)c1cc2ccc3c(-c4ccc(N(c5ccccc5)c5ccccc5)cc4)ccc4c5nc6cc(C#N)c(C#N)cc6nc5c(c1)c2c34
emission maximum (in C1CCOC1): 839.18 nm
emission maximum (in CCCCCC): 575.31 nm
emission maximum (in Cc1ccccc1): 613 nm
emission maximum (in ClC(Cl)Cl): 784.69 nm
emission maximum (in ClCCl): 839.18 nm

Compound: CCCCN1C(=O)c2cc(Oc3ccc(C(C)(C)C)cc3)c3c4c(Oc5ccc(C(C)(C)C)cc5)cc5c6c(cc(Oc7ccc(C(C)(C)C)cc7)c(c7c(Oc8ccc(C(C)(C)C)cc8)cc(c2c37)C1=O)c64)C(=O)N(CCCC)C5=O
emission maximum (in ClC(Cl)Cl): 615 nm
emission maximum (in ClCCl): 607 nm

Compound: N#Cc1nc2c3ccc(-c4ccc(N(c5ccccc5)c5ccccc5)cc4)cc3c3cc(-c4ccc(N(c5ccccc5)c5ccccc5)cc4)ccc3c2nc1C#N
emission maximum (in C1COCCO1): 633.42 nm
emission maximum (in CCCCCC): 503.54 nm
emission maximum (in Cc1ccccc1): 588 nm
emission maximum (in ClC(Cl)Cl): 721.14 nm
emission maximum (in O=P(c1ccccc1)(c1ccccc1)c1cccc(-c2cc(-n3c4ccccc4c4ccccc43)cc(-n3c4ccccc4c4ccccc43)c2)n1): 628 nm

Compound: CC1(C)c2ccccc2N(c2ccc(-c3nc4cc(C#N)c(C#N)cc4nc3-c3ccc(N4c5ccccc5C(C)(C)c5ccccc54)cc3)cc2)c2ccccc21
emission maximum (in Cc1ccccc1): 620 nm

Compound: O=C1c2ccccc2-c2ccccc21
emission maximum (in C1CCCCC1): 463 nm
emission maximum (in CC#N): 507 nm
emission maximum (in CCO): 553 nm
emission maximum (in c1ccccc1): 485 nm

Compound: Cc1c2oc3c(C)c(N)cc(C(=O)NC4OC(=O)C(C(C)C)N(C)C(=O)CN(C)C(=O)C5CCCN5C(=O)C(C(C)C)NC4=O)c3nc-2c(C(=O)NC2OC(=O)C(C(C)C)N(C)C(=O)CN(C)C(=O)C3CCCN3C(=O)C(C(C)C)NC2=O)c(N)c1=O (stereo not drawn)
emission maximum (in C1CCOC1): 608.36 nm
emission maximum (in CC#N): 634.41 nm
emission maximum (in CC(=O)O): 638.86 nm
emission maximum (in CC(C)=O): 609.72 nm
emission maximum (in CCCCO): 669.51 nm
emission maximum (in CCCCOC(C)=O): 624.05 nm
emission maximum (in CCCO): 658.62 nm
emission maximum (in CCN(CC)CC): 597.77 nm
emission maximum (in CCO): 669 nm
emission maximum (in CCOC(C)=O): 598.75 nm
emission maximum (in CN(C)C=O): 640.78 nm
emission maximum (in CO): 673.84 nm
emission maximum (in CS(C)=O): 637.01 nm
emission maximum (in Cc1ccccc1): 613.07 nm
emission maximum (in ClC(Cl)Cl): 620.11 nm
emission maximum (in ClCCCl): 609.65 nm
emission maximum (in O): 674.17 nm
emission maximum (in O=[N+]([O-])c1ccccc1): 623.24 nm
emission maximum (in c1ccccc1): 621.25 nm
emission maximum (in c1ccncc1): 648.07 nm

Compound: COc1ccc(-n2c(-c3ccc(-c4cncc5ccccc45)cc3)nc(-c3ccccc3)c2-c2ccccc2)cc1
emission maximum (in C1CCOC1): 432 nm

Compound: CN(C)c1ccc(-c2ccc(/C=C/c3ccncn3)cc2)cc1
emission maximum (in ClCCl): 570 nm

Compound: CCN(CC)c1ccc2nc3c4ccccc4c(=O)cc-3oc2c1
emission maximum (in C1COCCO1): 582 nm
emission maximum (in CC#N): 620 nm
emission maximum (in CC(C)=O): 614 nm
emission maximum (in CCCCCC): 532 nm
emission maximum (in CCO): 638 nm
emission maximum (in CCOC(C)=O): 594 nm
emission maximum (in CO): 643 nm
emission maximum (in CS(C)=O): 635 nm
emission maximum (in Cc1ccccc1): 572 nm
emission maximum (in ClCCl): 608 nm

Compound: CN(C)c1ccc(C2=Nc3scc(-c4ccc(N(C)C)cc4)[n+]3[B-](F)(F)O2)cc1
emission maximum (in C1CCOC1): 616 nm
emission maximum (in Cc1ccccc1): 518 nm
emission maximum (in ClCCl): 590 nm

Compound: Nc1ccc(-c2ccc3c(c2)C(=O)c2ccccc2C3=O)cc1
emission maximum (in CCCCCC): 512 nm
emission maximum (in CCOCC): 643 nm
emission maximum (in Cc1ccccc1): 599 nm
emission maximum (in ClC(Cl)(Cl)Cl): 562 nm
emission maximum (in ClCCl): 695 nm

Compound: Cc1sc(-c2ccc(-c3nc(-c4ccccc4)c(-c4ccccc4)[nH]3)cc2)c(C)c1C1=C(c2c(C)n(C)c3ccccc23)C(F)(F)C(F)(F)C1(F)F
emission maximum (in C1CCOC1): 392 nm

Compound: COc1ccc2c(c1)c1cc(OC)ccc1n2-c1ccc(S(=O)(=O)c2ccc(-n3c4ccc(OC)cc4c4cc(OC)ccc43)cc2)cc1
emission maximum (in Cc1ccccc1): 445 nm

Compound: CC(C)[Si]1(C(C)C)c2cc(C#N)ccc2-c2ccc(N(C)C)cc21
emission maximum (in C1CCCCC1): 410 nm
emission maximum (in CC#N): 464 nm
emission maximum (in CCO): 456 nm
emission maximum (in CCOCC): 423 nm
emission maximum (in CS(C)=O): 473 nm
emission maximum (in ClCCl): 442 nm
emission maximum (in c1ccccc1): 422 nm

Compound: CCCCCCCCCC1(CCCCCCCCC)c2cc(C#Cc3ccc(C#Cc4ccc(N(CCCCCC)CCCCCC)cc4)cc3)ccc2-c2ccc(C#Cc3ccc(C#Cc4ccc(N(CCCCCC)CCCCCC)cc4)cc3)cc21
emission maximum (in Cc1ccccc1): 433 nm

Compound: CC1(C)C2=C(c3ccc(N(c4ccccc4)c4ccccc4)cc31)P(=O)(c1ccccc1)c1ccccc12 (stereo not drawn)
emission maximum (in CC#N): 580 nm
emission maximum (in CO): 598 nm
emission maximum (in Cc1ccccc1): 511 nm

The next lines start with the values.

emission maximum (in CCO): 499 nm
emission maximum (in ClCCl): 503 nm
emission maximum (in O): 609 nm
Compound: N#CC(C#N)=Cc1ccc(-c2ccc(-c3nc4ccccc4s3)c(O)c2)s1

emission maximum (in c1cc(-c2cccc(-n3c4ccccc4c4ccccc43)c2)cc(-n2c3ccccc3c3ccccc32)c1): 610 nm
Compound: N#Cc1nc(-c2ccc(N3c4ccccc4Oc4ccccc43)cc2)c(-c2ccc(N3c4ccccc4Oc4ccccc43)cc2)nc1C#N

emission maximum (in ClCCl): 428 nm
Compound: CCOC(=O)c1c(-c2cc3cc4c(cc3oc2=O)OC(C)(C)CC4)nn(-c2cccc(C)c2)c1C(=O)OCC

emission maximum (in C1CCCCC1): 377 nm
Compound: c1ccc(-c2ccc(-c3ccc4c(c3)CCO4)cc2)cc1

emission maximum (in ClC(Cl)Cl): 565 nm
Compound: c1csc(-c2ccc(-c3cccs3)c3nsnc23)c1

emission maximum (in C1CCOC1): 533 nm
emission maximum (in ClC(Cl)Cl): 592 nm
emission maximum (in ClCCl): 635 nm
Compound: COc1ccc2cc(C#Cc3ccc([N+](=O)[O-])cc3)ccc2c1

emission maximum (in O): 318 nm
Compound: [NH3+]C(Cc1ccc(O)c(O)c1)C(=O)[O-] (stereo not drawn)

emission maximum (in CC#N): 533 nm
Compound: Cc1cc2nc3c(=O)[nH]c(=O)nc-3n(C)c2cc1C

emission maximum (in CCO): 659 nm
emission maximum (in CS(C)=O): 625 nm
emission maximum (in O): 643 nm
Compound: CC1(C)C(/C=C/c2cc3ccc(O)cc3oc2=O)=[N+](CCCS(=O)(=O)[O-])c2ccc3c(S(=O)(=O)O)cc(S(=O)(=O)O)cc3c21

emission maximum (in ClC(Cl)Cl): 482 nm
Compound: CCN(CC)c1ccc2cc(-c3ccc(-c4ccc5c6ccccc6c6c7cc(-c8ccc(-c9cc%10ccc(N(CC)CC)cc%10oc9=O)cc8)ccc7c7ccccc7c6c5c4)cc3)c(=O)oc2c1

emission maximum (in ClCCl): 495 nm
Compound: CCN(CC)c1ccc2cc(-c3nc4cc(C(=O)Nc5ccccc5)ccc4o3)c(=O)oc2c1

emission maximum (in ClCCl): 440 nm
Compound: CCOC(=O)c1c(-c2cc3c(ccc4ccccc43)oc2=O)nn(-c2cccc(C)c2)c1C(=O)OCC

emission maximum (in CCO): 508 nm
Compound: CC1(C)Nc2cc3nc4cc(Br)c(Br)cc4nc3cc2N1

emission maximum (in ClC(Cl)Cl): 442 nm
Compound: CCCCCCc1cc2c3cscc3c3cc(CCCCCC)sc3c2s1

emission maximum (in CC#N): 455 nm
emission maximum (in CO): 453 nm
emission maximum (in O): 466 nm
Compound: CSc1ccc2c(c1)N(CCCN1CCN(C)CN1C)c1ccccc1S2

emission maximum (in CC#N): 429 nm
Compound: N#Cc1nn(-c2ccc(Cl)cc2)nc1N1CCCC1

emission maximum (in ClCCl): 445 nm
Compound: CCCCn1c(-c2ccc(-c3nnc(-c4ccc(-c5nc(-c6ccccc6)c(-c6ccccc6)n5CCCC)cc4)o3)cc2)nc(-c2ccccc2)c1-c1ccccc1

emission maximum (in O): 420 nm
Compound: Fc1cc(F)c2cc3cccc[n+]3cc2c1

emission maximum (in ClCCl): 567 nm
Compound: CCCCC1=C(CCCC)c2cccc3c2c(cc2nc4ccccc4nc23)O1

emission maximum (in C1CCOC1): 494 nm
Compound: C[P+](c1c2ccccc2cc2ccccc12)(c1c2ccccc2cc2ccccc12)c1c2ccccc2cc2ccccc12

emission maximum (in CCO): 445 nm
Compound: O=c1c2cc(F)c(O)cc2oc2cc(N3CCCCC3)c(F)cc12

emission maximum (in ClCCl): 365 nm
Compound: Cc1cc2c3ccccc3sc2c2[nH]c3ccccc3c12

emission maximum (in C1CCCCC1): 380 nm
emission maximum (in CO): 400 nm
Compound: COc1ccc(/C=C(\C)c2nc3ccccc3o2)cc1

emission maximum (in CCO): 647 nm
emission maximum (in O): 647 nm
Compound: CC/[NH+]=c1\cc2oc3cc(NCCN)c4ccccc4c3nc-2cc1C

emission maximum (in C1CCCCC1): 333 nm
Compound: C[Si](C)(C)c1ccc([Si](C)(C)C)c2ccccc12

emission maximum (in C1COCCO1): 461 nm
Compound: COC(=O)c1ccc(/C=C2\N=C(c3ccccc3)NC2=O)cc1

emission maximum (in CCO): 446 nm
Compound: CC(C)(C)OC(=O)NCC(=O)OCc1ccc2c3cccc4cccc(c5cccc1c52)c43
